Assay results reported in patent US10688093B2, “Methods, compositions, and uses of novel Fyn kinase inhibitors” (priority 2015, dated 2020).

Target: full-length recombinant human FYN A (Homo sapiens (Human), UniProt P06241)
Assay: ADP-Glo Kinase Assay of FYN kinase inhibition
Type: biochemical
Conditions: primary screen, initial compounds
Outline: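 GST-tagged full-length FYN A (baculovirus, Sf9) at 3 pg preincubated 30 min RT with compound (10-point 3-fold series from 10 μM) in Tris pH 7.5/MgCl2 buffer. 12-mer tyrosine peptide plus 12.5 pmol ATP added, 90 min RT; ADP measured by ADP-Glo luminescence, IC50 from dose-response.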

Chain of full-length recombinant human FYN A (P06241 whole entry): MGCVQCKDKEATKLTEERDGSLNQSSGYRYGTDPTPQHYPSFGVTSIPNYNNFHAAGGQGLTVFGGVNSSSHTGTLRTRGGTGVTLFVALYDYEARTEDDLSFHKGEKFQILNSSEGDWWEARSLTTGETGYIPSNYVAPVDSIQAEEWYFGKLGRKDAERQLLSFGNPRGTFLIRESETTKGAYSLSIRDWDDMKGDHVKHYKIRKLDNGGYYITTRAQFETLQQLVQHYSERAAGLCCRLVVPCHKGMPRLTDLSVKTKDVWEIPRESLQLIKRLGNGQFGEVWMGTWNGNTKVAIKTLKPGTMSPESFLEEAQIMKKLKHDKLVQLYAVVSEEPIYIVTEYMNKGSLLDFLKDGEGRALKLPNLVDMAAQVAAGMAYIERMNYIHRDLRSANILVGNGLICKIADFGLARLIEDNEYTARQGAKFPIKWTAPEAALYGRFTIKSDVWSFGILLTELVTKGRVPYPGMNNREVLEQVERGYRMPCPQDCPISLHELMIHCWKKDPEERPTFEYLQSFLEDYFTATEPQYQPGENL

SMILES	IC50
Cn1cc(-c2cn3c(-c4ccsc4)cnc3cn2)cn1 [388_0074_8400, 6-(1-methylpyrazol-4-yl)-3-(3-thienyl)imidazo [1,2-a]pyrazine]	6380 nM
CN1CCN(c2ccc(-c3cn4c(-c5ccc(O)cc5)cnc4cn3)cc2)CC1 [388_0080_0218, 4-[6-[4-(4-methyl-piperazin-1-yl)phenyl]imidazo [1,2-a]pyrazin-3-yl]phenol]	678 nM
CN(C)C(=O)c1cccc(-c2cn3c(-c4ccc(O)cc4)cnc3cn2)c1 [388_0080_0349, 3-[3-(4-hydroxyphenyl)imidazo[1,2-a]pyrazin-6-yl]-N,N-dimethyl-benzamide]	974 nM
Oc1ccc(-c2cnc3cnc(-c4cnn(Cc5ccccc5)c4)cn23)cc1 [388_0080_7469, 4-[6-(1-benzylpyrazol-4-yl)imidazo[1,2-a]pyrazin-3-yl]phenol]	6620 nM
O=C(NC1CC1)c1ccc(-c2cn3c(-c4ccc(O)cc4)cnc3cn2)cc1 [388_0080_7489, N-cyclopropyl-4-[3-(4-hydroxyphenyl)imidazo[1,2-a]pyrazin-6-yl]benzamide]	1960 nM
COc1cc(-c2cnc3cnc(-c4cccc(NS(C)(=O)=O)c4)cn23)cc(OC)c1OC [388_0087_6488, N-[3-[3-(3,4,5-trimethoxyphenyl)imidazo[1,2-a]pyrazin-6-yl]phenyl] methane-sulfonamide]	2800 nM
COc1ccc(-c2cnc3cnc(-c4ccc(O)cc4)cn23)cc1 [388_0280_0080, 4-[3-(4-methoxyphenyl)imidazo[1,2-a]pyrazin-6-yl]phenol]	10500 nM
COc1cc(-c2cnc3cnc(-c4cccnc4)cn23)ccc1O [388_0314_0071, 2-methoxy-4-[6-(3-pyridyl)imidazo[1,2-a]pyrazin-3-yl]phenol]	3070 nM
COc1cc(-c2cnc3cnc(-c4ccc(C(=O)NCCCN(C)C)cc4)cn23)ccc1O [388_0314_0180, N-[3-(dimethylamino)propyl]-4-[3-(4-hydroxy-3-methoxy-phenyl)imidazo [1,2-a]pyrazin-6-yl]benzamide]	606 nM
COc1cc(-c2cnc3cnc(-c4cccc(C(=O)NCCO)c4)cn23)ccc1O [388_0314_0192, N-(2-hydroxyethyl)-3-[3-(4-hydroxy-3-methoxy-phenyl)imidazo [1,2-a]pyrazin-6-yl]benzamide]	896 nM

More lines, now with the values ahead:

IC50	SMILES
637 nM	CC(C)N1CCN(c2ccc(-c3cn4c(-c5ccc(O)cc5)cnc4cn3)cc2)CC1 [388_0080_0182, 4-[6-[4-(4-isopropyl-piperazin-1-yl)phenyl]imidazo [1,2-a]pyrazin-3-yl]phenol]
1030 nM	O=C(NCCO)c1cccc(-c2cn3c(-c4ccc(O)cc4)cnc3cn2)c1 [388_0080_0192, N-(2-hydroxy-ethyl)-3-[3-(4-hydroxyphenyl)imidazo[1,2-a]pyrazin-6-yl]benzamide]
641 nM	O=C(NCCO)c1ccc(-c2cn3c(-c4ccc(O)cc4)cnc3cn2)cc1 [388_0080_0328, N-(2-hydroxyethyl)-4-[3-(4-hydroxyphenyl)imidazo[1,2-a]pyrazin-6-yl]benzamide]
1930 nM	Nc1ccc(-c2cn3c(-c4ccc(O)cc4)cnc3cn2)cn1 [388_0080_7905, 4-[6-(6-amino-3-pyridyl)imidazo [1,2-a]pyrazin-3-yl]phenol]
1350 nM	COc1cc(-c2cnc3cnc(-c4ccc(NCCN5CCOCC5)nc4)cn23)ccc1O [388_0314_0003, 2-methoxy-4-[6-[6-(2-morpholinoethyl-amino)-3-pyridyl]imidazo [1,2-a]pyrazin-3-yl]phenol]
1750 nM	COc1cc(-c2cnc3cnc(-c4ccccc4N(C)C)cn23)ccc1O [388_0314_0006, 4-[6-[2-(dimethylamino)phenyl]imidazo [1,2-a]pyrazin-3-yl]-2-methoxy-phenol]
1130 nM	COc1cc(-c2cnc3cnc(-c4ccc(N5CCN(C)CC5)nc4)cn23)ccc1O [388_0314_0016, 2-methoxy-4-[6-[6-(4-methylpiperazin-1-yl)-3-pyridyl]imidazo [1,2-a]pyrazin-3-yl]phenol]
